Measurements: BigSolDB 2.1

**Q.** Which results are given for `CN(Cc1ccccc1)CN1C(=O)C(=NNC(=O)c2ccccc2OCc2ccccc2)c2ccccc21`?
**A.** solubility (mole fraction) (in PEG-400, 298.15 K): 0.00711; solubility (mole fraction) (in PEG-400, 303.15 K): 0.00781; solubility (mole fraction) (in PEG-400, 308.15 K): 0.00887; solubility (mole fraction) (in PEG-400, 313.15 K): 0.00992; solubility (mole fraction) (in PEG-400, 318.15 K): 0.0114; solubility (mole fraction) (in ethanol, 298.15 K): 0.000474; solubility (mole fraction) (in ethanol, 303.15 K): 0.000583; solubility (mole fraction) (in ethanol, 308.15 K): 0.000715; solubility (mole fraction) (in ethanol, 313.15 K): 0.000832; solubility (mole fraction) (in ethanol, 318.15 K): 0.000969; solubility (mole fraction) (in ethylene glycol, 298.15 K): 0.000304; solubility (mole fraction) (in ethylene glycol, 303.15 K): 0.000416; solubility (mole fraction) (in ethylene glycol, 308.15 K): 0.000536; solubility (mole fraction) (in ethylene glycol, 313.15 K): 0.000671; solubility (mole fraction) (in ethylene glycol, 318.15 K): 0.000809; solubility (mole fraction) (in isopropanol, 298.15 K): 0.000414; solubility (mole fraction) (in isopropanol, 303.15 K): 0.00053; solubility (mole fraction) (in isopropanol, 308.15 K): 0.000658; solubility (mole fraction) (in isopropanol, 313.15 K): 0.000802; solubility (mole fraction) (in isopropanol, 318.15 K): 0.000941; solubility (mole fraction) (in n-butanol, 298.15 K): 0.000759; solubility (mole fraction) (in n-butanol, 303.15 K): 0.00091; solubility (mole fraction) (in n-butanol, 308.15 K): 0.00106; solubility (mole fraction) (in n-butanol, 313.15 K): 0.00122; solubility (mole fraction) (in n-butanol, 318.15 K): 0.00138; solubility (mole fraction) (in propylene glycol, 298.15 K): 0.000362; solubility (mole fraction) (in propylene glycol, 303.15 K): 0.000488; solubility (mole fraction) (in propylene glycol, 308.15 K): 0.000624; solubility (mole fraction) (in propylene glycol, 313.15 K): 0.000782; solubility (mole fraction) (in propylene glycol, 318.15 K): 0.000952; solubility (mole fraction) (in sec-butanol, 298.15 K): 0.000808; solubility (mole fraction) (in sec-butanol, 303.15 K): 0.000968; solubility (mole fraction) (in sec-butanol, 308.15 K): 0.00113; solubility (mole fraction) (in sec-butanol, 313.15 K): 0.00129; solubility (mole fraction) (in sec-butanol, 318.15 K): 0.00145; solubility (mole fraction) (in transcutol, 298.15 K): 0.00394; solubility (mole fraction) (in transcutol, 303.15 K): 0.00453; solubility (mole fraction) (in transcutol, 308.15 K): 0.00533; solubility (mole fraction) (in transcutol, 313.15 K): 0.00618; solubility (mole fraction) (in transcutol, 318.15 K): 0.00714; solubility (mole fraction) (in water, 298.15 K): 1.11e-06; solubility (mole fraction) (in water, 303.15 K): 1.5e-06; solubility (mole fraction) (in water, 308.15 K): 1.93e-06; solubility (mole fraction) (in water, 313.15 K): 2.46e-06; solubility (mole fraction) (in water, 318.15 K): 3e-06
